Data as given in patent US20190038628A1, “USE OF INHIBITORS OF THE ACTIVITY OR FUNCTION OF PI3K FOR THE TREATMENT OF PRIMARY SJOGREN'S SYNDROME” (Novartis AG, priority 2016, published 2019).

Test system: PI3K/Akt pathway
Assay: pAkt in B cells in stimulated whole blood clinical samples after single oral administration
Assay type: in vivo
Details: healthy human subjects
Protocol: For assessment of the in vivo effects of compound A on human B cell activation measured as Akt phosphorylation vlinical samples were prepared from whole blood using a Na-Heparin monovette system.
Whole blood was then incubated with either anti-IgM/IL-4 (7.5 μg/ml of anti-IgM [Southern Biotech] and 7.5 ng/ml of IL-4 [R&D]) or with PBS (unstimulated sample). Incubation was performed using 95 μl of blood (in duplicates) in plate format within 1 h after blood collection. Cultures were mixed well by gently pipetting up and down and incubated at 37° C. (in incubator, 5% CO2). After 30 min whole blood was lysed and fixed with pre-warmed (37° C.) BD PhosFlow-Lyse/Fix buffer (1600 μl) for 20 minutes at 37° C. (water bath) in the dark. The lysed and fixed blood samples were immediately frozen and stored at −80° C. until further processing.
Clinical samples were processed within one week after blood collection. After thawing was completed (at 37° C. water-bath), samples were centrifuged at 502 g (1580 rpm) for 5 min at room temperature. Then pelleted cells were washed with 500 μL ice cold BD Phosflow Perm II buffer, mixed well and kept on ice for 30-35 minutes. […]
Samples were analyzed on the same day. […] Data was calculated as percent inhibition of pAkt relative to the baseline value.

## CCC(=O)N1CC[C@H](Nc2ncnc3c2CN(c2cnc(OC)c(C(F)(F)F)c2)CC3)C1 [Compound A, 1-{(S)-3-[6-(6-Methoxy-5-trifluoromethyl-pyridin-3-yl)-5,6,7,8-tetrahydro-pyrido[4,3-d]pyrimidin-4-ylamino]-pyrrolidin-1-yl}-propan-1-one]
Single administration of 80 mg, over 12 hours
  pathway inhibition (PI3K/Akt): greater than 80%
Single oral administration
  inhibition of the PI3K/Akt pathway (in words): dose-, concentration- and time-dependent inhibition
